Measurements reported in US20260151403A1, “NEK7 DEGRADERS AND METHODS OF USE THEREOF” (Captor Therapeutics S.A., priority 2022, published 2026).

Experiments:
[1] = molecular target: T1, [NEK7]-[compound of formula (I)]-[CRBN/DDB1] complex (Homo sapiens, UniProt Q8TDX7+Q96SW2); experiment: AlphaLISA dose response ternary complex formation assay; type: binding; conditions: 1 μM compound, normalized to maximum signal of Compound 2 (positive control) and DMSO background; for activation at 1 µM: read-out: Normalized AlphaLISA ternary complex average signal at 1 μM molecule
Description: The effect of the molecular glue compounds of the invention on the formation of a ternary complex composed of [NEK7]-[compound of formula (I)]-[CRBN/DDB1] was investigated with two methods: AlphaLISA dose response assay or HTRF ternary complex assay.
Two types of protein solution were prepared: • 200 nM biotinylated NEK7, 40 μg/ml AlphaScreen Streptavidin-coated Donor Beads in HBS (10 mM HEPES, 150 mM NaCL, pH 7.4) buffer with 0.1% Tween-20 and 1 mM DTT, • 200 nM 6×His-CRBN/Strep-DDB1, 40 μg/ml AlphaLISA Anti-6×His Acceptor beads in HBS buffer with 0.1% Tween-20 and 1 mM DTT.
The prepared solutions were incubated at room temperature for 30 min and then the solution containing the donor beads was mixed with the solution containing the acceptor beads.
The tested compounds were dispensed onto a white 384-well AlphaPlate 384 SW. DMSO was backfilled to all wells, resulting in a final DMSO content of 2%. Wells containing only DMSO served as background. Next, 10 μl of solution with donor and acceptor beads was added to the wells.
The plate was sealed with transparent film and shaken using a VibroTurbulator for 60 sec at room temperature, level 3. The plate was then spun down shortly (10 s, 1000 rcf, room temperature) and incubated at 25° C. for 30 min.
The read-out was performed with PerkinElmer Enspire Multimode Plate Reader (method for AlphaLISA 384-well low volume, Filterset: λexc=680 nm, λem=615 nm).
The results were analyzed as follows: • 1) an average of luminescence for background signal was calculated and used as a negative control; • 2) average of the maximum measured luminescence for Compound 2 was calculated and used as an internal positive control; • 3) raw luminescence values were normalized against positive and negative controls; • 4) Normalized responses to Compound 2 were determined.

NEK7-HiBiT protein = NEK7-HiBiT protein (Homo sapiens, UniProt Q8TDX7); experiment: NEK7-HiBiT degradation assay (Nano-Glo HiBiT Lytic Assay) in HEK293 NEK7-HiBiT cells; type: cell-based; conditions: 24 h, conc. 0.1, 1 and 10 μM tested, concentration of the table values not stated, mean of 3 technical replicates
Description: HEK293 NEK7-HiBiT cells were generated using CRISPR-Cas9 system. HEK293 cells were transformed with pSpCas9-BB-2A-Puro v2.0 plasmid carrying gRNA targeting the N-terminus of NEK7 and ssODN template containing the HiBiT tag sequence with flanking homology sequences. Neon Transfection System (Thermo Fisher Scientific) was used for electroporation. HEK293 NEK7-HiBiT cells were cultured with DMEM Glutamax (Gibco) supplemented with 10% heat inactivated FBS (Gibco). After transfection the culture medium was changed to DMEM Glutamax with 10% heat-inactivated FBS and 1% Penicillin-Streptomycin (Biowest) supplemented with Puromycin (2 μg/ml; Invivogen) for clonal selection. In order to isolate single cell clones for further validation and analysis, limiting dilution cloning in 96-well plates was performed. When the single clones reached confluency, HiBiT Lytic Assay (Promega) was performed in order to identify HiBiT positive clones. The clone selected for further studies was verified and validated using genotyping and HiBiT Blotting (Promega).
Selected clone of HEK293 NEK7-HiBiT cells was maintained in the DMEM-Glutamax medium supplemented with 10% of heat-inactivated FBS (Gibco) and 1% of Penicillin-Streptomycin Solution 100x (Biowest) at 37° C., 5% CO2 and subcultured every 2-3 days.
For Nano-Glo HiBiT Lytic Assay HEK293 NEK7-HiBiT cells were seeded at the density 2×10^3 cells in triplicates in the 40 μL of growth medium per single well on 384 well plate (Greiner Bio-One). Compounds or DMSO were added to treatment plates using Echo555 Liquid Handler and incubated at 37° C., 5% CO2 for 24 hours. After incubation 40 μL of Nano-Glo HiBiT Lytic Reagent (prepared according to the manufacturer protocol) were added to 40 μL of the cell culture medium present in each well. The plate content was briefly mixed (460 rpm) on an orbital shaker to ensure cell lysis. The plate was left at RT protected from light for another 10 min to stabilize the luminescent signal. The luminescence signal was measured using CLARIOstar Multimode Plate Reader. Focus and gain were adjusted to DMSO treated cells. The results were calculated as the NEK7-HiBiT % relative to the DMSO control of 3 technical replicates relative to the DMSO control.
HEK293 NEK7-HiBiT cells were treated with the compounds (conc. 0.1, 1 and 10 μM) or DMSO for 24 h. After incubation with compounds NEK7-HiBiT degradation was measured as a luminescence signal using CLARIOstar Multimode Plate reader.
Additionally, compounds reducing NEK7-HiBiT protein level by >=50% at 0.1 μM, were also identified.

[2] = molecular target: T1, [NEK7]-[compound of formula (I)]-[CRBN/DDB1] complex; experiment: HTRF ternary complex assay; type: binding; conditions: dose-response, 180 min at 25° C.; for EC50: read-out: HTRF ternary complex Average pEC50 by molecule (converted)
Description: The effect of the molecular glue compounds of the invention on the formation of a ternary complex composed of [NEK7]-[compound of formula (I)]-[CRBN/DDB1] was investigated.
Mix solution of proteins and reagents was prepared: • 24 nM NEK7, 52.8 nM 6×His-CRBN/Strep-DDB1, 3 nM of Streptavidin-Eu cryptate […] and 6.67 nM of Anti-6×his-d2 […] was prepared in PPI Europium detection buffer (Cisbio) with 1 mM DTT.
The tested compounds in dose-response were dispensed onto a white 384-well low volume plate (Greiner, 784075). DMSO was backfilled to all wells, resulting in a final DMSO content of 0.5%. Wells containing only DMSO served as background.
The plate was sealed with transparent film and shaken using a VibroTurbulator for 60 sec at level 3.
The plate was then spun down shortly (10 s, 1000 rcf) and incubated at 25° C. for 180 min.
The read-out was performed with plate reader (Pherastar, BMG Labtech) in time resolved fluorescence mode. Filterset: TR 337 665 620.
The results were analyzed as follows: • 1) an average of fluorescence for background signal was calculated and used as a negative control; • 2) raw fluorescence values for tested compounds were normalized against negative controls; • 3) saturation curve was fitted to specific binding with Hill slope model; • 4) EC50 and pEC50 values were determined.

T1 sequence (Q8TDX7 whole entry): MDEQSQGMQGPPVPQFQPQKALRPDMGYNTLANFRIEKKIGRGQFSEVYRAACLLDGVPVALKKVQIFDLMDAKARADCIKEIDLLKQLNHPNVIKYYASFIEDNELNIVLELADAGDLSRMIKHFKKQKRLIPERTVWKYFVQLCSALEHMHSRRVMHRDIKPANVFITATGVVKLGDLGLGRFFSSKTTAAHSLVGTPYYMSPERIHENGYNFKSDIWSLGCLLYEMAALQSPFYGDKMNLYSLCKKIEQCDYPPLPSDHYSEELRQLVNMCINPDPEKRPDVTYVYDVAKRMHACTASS
T1 sequence (Q96SW2 whole entry): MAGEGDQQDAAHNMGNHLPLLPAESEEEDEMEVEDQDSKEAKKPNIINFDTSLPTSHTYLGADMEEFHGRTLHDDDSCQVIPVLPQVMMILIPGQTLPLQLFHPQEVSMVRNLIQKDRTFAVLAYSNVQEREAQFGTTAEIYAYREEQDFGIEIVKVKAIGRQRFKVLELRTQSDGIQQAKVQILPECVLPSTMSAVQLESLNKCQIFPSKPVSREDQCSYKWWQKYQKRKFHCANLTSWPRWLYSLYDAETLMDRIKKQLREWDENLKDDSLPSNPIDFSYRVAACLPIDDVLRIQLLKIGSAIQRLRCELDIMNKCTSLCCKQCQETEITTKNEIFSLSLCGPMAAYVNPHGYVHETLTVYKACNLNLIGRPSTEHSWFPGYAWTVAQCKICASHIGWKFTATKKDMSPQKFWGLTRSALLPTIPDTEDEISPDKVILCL
T1 sequence (Q16531 whole entry partner): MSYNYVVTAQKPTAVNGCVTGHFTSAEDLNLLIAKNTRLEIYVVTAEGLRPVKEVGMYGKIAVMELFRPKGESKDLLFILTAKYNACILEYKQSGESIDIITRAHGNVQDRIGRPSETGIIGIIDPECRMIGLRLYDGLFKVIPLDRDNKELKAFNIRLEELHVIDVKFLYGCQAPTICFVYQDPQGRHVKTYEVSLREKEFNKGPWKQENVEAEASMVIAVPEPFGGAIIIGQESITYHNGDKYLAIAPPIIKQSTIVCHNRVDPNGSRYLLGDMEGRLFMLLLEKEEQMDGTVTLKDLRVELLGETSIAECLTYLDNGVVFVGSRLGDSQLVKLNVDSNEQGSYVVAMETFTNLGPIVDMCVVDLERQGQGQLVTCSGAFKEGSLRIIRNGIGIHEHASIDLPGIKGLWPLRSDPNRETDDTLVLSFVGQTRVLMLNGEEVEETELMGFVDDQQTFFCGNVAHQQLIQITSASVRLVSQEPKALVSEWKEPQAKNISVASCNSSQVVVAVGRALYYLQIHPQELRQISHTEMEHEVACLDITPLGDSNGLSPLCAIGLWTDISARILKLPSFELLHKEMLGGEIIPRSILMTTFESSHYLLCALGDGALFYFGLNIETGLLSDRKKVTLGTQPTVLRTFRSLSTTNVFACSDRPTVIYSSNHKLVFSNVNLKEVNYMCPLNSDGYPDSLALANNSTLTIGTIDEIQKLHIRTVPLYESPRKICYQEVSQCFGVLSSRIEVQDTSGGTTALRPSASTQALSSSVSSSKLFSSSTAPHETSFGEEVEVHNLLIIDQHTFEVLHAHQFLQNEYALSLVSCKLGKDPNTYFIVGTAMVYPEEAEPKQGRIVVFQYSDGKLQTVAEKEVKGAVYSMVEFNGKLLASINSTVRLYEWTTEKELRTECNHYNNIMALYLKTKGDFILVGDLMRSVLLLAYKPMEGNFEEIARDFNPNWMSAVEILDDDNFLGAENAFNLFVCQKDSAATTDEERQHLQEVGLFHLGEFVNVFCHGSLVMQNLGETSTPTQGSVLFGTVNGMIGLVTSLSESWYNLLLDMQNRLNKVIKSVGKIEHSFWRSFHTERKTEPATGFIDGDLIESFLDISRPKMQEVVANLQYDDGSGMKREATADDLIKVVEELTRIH
NEK7-HiBiT protein, sequence (Q8TDX7 whole entry): as the sequence (Q8TDX7 whole entry) above
NEK7-HiBiT protein, sequence (Q96SW2 whole entry, further chain): as the sequence (Q96SW2 whole entry) above
NEK7-HiBiT protein, sequence (Q16531 whole entry partner): as the sequence (Q16531 whole entry partner) above

Row | Compound | activation at 1 µM [1] | Levels of NEK7-HiBiT Protein (as a % of DMSO control) (NEK7-HiBiT protein) | EC50 [2] | Normalized AlphaLISA ternary complex average signal at 1 μM molecule [1] | HTRF ternary complex Average pEC50 by molecule [2]
1 | O=C1CCC(N2Cc3c(csc3C3CCCCO3)C2=O)C(=O)N1 (stereo not drawn) [Compound 71, 3-(4-oxo-1-(tetrahydro-2H-pyran-2-yl)-4H-thieno[3,4-c]pyrrol-5 (6H)-yl)piperidine-2,6-dione] | < 10% | D (Levels of NEK7-HiBiT Protein ≥ 75%) | > 3160 nM | – | –
2 | O=C1CCC(N2Cc3cc(-c4cc(C(F)(F)F)ccn4)ccc3C2=O)C(=O)N1 (stereo not drawn) [26(2), 3-(1-oxo-5-(4-(trifluoromethyl)pyridin-2-yl)isoindolin-2-yl)piperidine-2,6-dione] | 20 to 80% | C (Levels of NEK7-HiBiT Protein > 50% and <75%) | 316 to 1000 nM | – | –
3 | O=C1CCCC(N2Cc3cc(-c4ccccn4)ccc3C2=O)C(=O)N1 (stereo not drawn) [29(2), 3-(1-oxo-5-(pyridin-2-yl)isoindolin-2-yl)azepane-2,7-dione] | < 10% | D (Levels of NEK7-HiBiT Protein ≥ 75%) | > 3160 nM | – | –
4 | CC(=O)NC1CCC(c2ccc3c(c2)CN(C2CCC(=O)NC2=O)C3=O)NC1 (single isomer, unassigned) [33 Isomer 2, N-(6-(2-(2,6-dioxopiperidin-3-yl)-1-oxoisoindolin-5-yl)piperidin-3-yl)acetamide] | – | B (Levels of NEK7-HiBiT Protein > 25% and ≤50%) | – | B (Normalized activity > 20% and <80%) | ++++ (7.0 > pEC50 > 6.5)
5 | CCCCC1CCC(c2ccc3c(c2)CN(C2CCC(=O)NC2=O)C3=O)NC1 (mixture of isomers) [Compound 37, 3-(5-(5-butylpiperidin-2-yl)-1-oxoisoindolin-2-yl)piperidine-2,6-dione] | > 80% | B (Levels of NEK7-HiBiT Protein > 25% and ≤50%) | 100 to 316 nM | – | –
6 | O=C1CCC(N2Cc3cc(-c4ccccn4)sc3C2=O)C(=O)N1 (stereo not drawn) [30(2), 3-(6-oxo-2-(pyridin-2-yl)-4,6-dihydro-5H-thieno[2,3-c]pyrrol-5-yl)piperidine-2,6-dione] | < 10% | D (Levels of NEK7-HiBiT Protein ≥ 75%) | > 3160 nM | – | –
7 | O=C1CCC(N2Cc3cc(C4CCC(c5ccccc5)CN4)ccc3C2=O)C(=O)N1 (single isomer, unassigned) [32 Isomer 1, 3-(1-oxo-5-(5-phenylpiperidin-2-yl)isoindolin-2-yl)piperidine-2,6-dione] | – | D (Levels of NEK7-HiBiT Protein ≥ 75%) | > 3160 nM | C (Normalized activity > 10% and <20%) | –
8 | O=C1CCC(N2Cc3cc(N4CCCCN4)ccc3C2=O)C(=O)N1 (stereo not drawn) [Compound 58, 3-(1-oxo-5-(tetrahydropyridazin-1 (2H)-yl)isoindolin-2-yl)piperidine-2,6-dione] | 20 to 80% | C (Levels of NEK7-HiBiT Protein > 50% and <75%) | 100 to 316 nM | – | –
9 | COc1ccnc(-c2ccc3c(c2)CN(C2CCC(=O)NC2=O)C3=O)c1 (stereo not drawn) [27(2), 3-(5-(4-methoxypyridin-2-yl)-1-oxoisoindolin-2-yl)piperidine-2,6-dione] | 20 to 80% | D (Levels of NEK7-HiBiT Protein ≥ 75%) | 316 to 1000 nM | – | –
10 | O=C1CCC(N2Cc3cc(-c4ccc(C(F)(F)F)cn4)ccc3C2=O)C(=O)N1 (stereo not drawn) [16(2), 3-(1-oxo-5-(5-(trifluoromethyl)pyridin-2-yl)isoindolin-2-yl)piperidine-2,6-dione] | > 80% | A (Levels of NEK7-HiBiT Protein ≤ 25%) | 316 to 1000 nM | – | –
11 | O=C1CCC(N2Cc3cc(C4CCC(c5ccccc5)CO4)ccc3C2=O)C(=O)N1 (single isomer, unassigned) [74 Isomer 1, 3-(1-oxo-5-(5-phenyltetrahydro-2H-pyran-2-yl)isoindolin-2-yl)piperidine-2,6-dione] | – | D (Levels of NEK7-HiBiT Protein ≥ 75%) | > 3160 nM | D (Normalized activity < 10%) | –
12 | O=C1CCCC(N2Cc3cc(C4CCCCN4)ccc3C2=O)C(=O)N1 (stereo not drawn) [Compound 65, 3-(1-oxo-5-(piperidin-2-yl)isoindolin-2-yl)azepane-2,7-dione] | < 10% | C (Levels of NEK7-HiBiT Protein > 50% and <75%) | > 3160 nM | – | –
13 | O=C1CCC(N2Cc3cc(C4CSCCN4)ccc3C2=O)C(=O)N1 (stereo not drawn) [Compound 57, 3-(1-oxo-5-(thiomorpholin-3-yl)isoindolin-2-yl)piperidine-2,6-dione] | 20 to 80% | C (Levels of NEK7-HiBiT Protein > 50% and <75%) | 100 to 316 nM | – | –
14 | CC(=O)NC1CCC(c2ccc3c(c2)CN(C2CCC(=O)NC2=O)C3=O)NC1 (single isomer, unassigned) [33 Isomer 1, N-(6-(2-(2,6-dioxopiperidin-3-yl)-1-oxoisoindolin-5-yl)piperidin-3-yl)acetamide] | 20 to 80% | A (Levels of NEK7-HiBiT Protein ≤ 25%) | 100 to 316 nM | – | –
15 | O=C1CCC(N2Cc3cc(C4CCCCN4)sc3C2=O)C(=O)N1 (stereo not drawn) [Compound 72, 3-(6-oxo-2-(piperidin-2-yl)-4,6-dihydro-5H-thieno[2,3-c]pyrrol-5-yl)piperidine-2,6-dione] | < 10% | C (Levels of NEK7-HiBiT Protein > 50% and <75%) | > 3160 nM | – | –
